Results on two molecules are retold here after ChEMBL document CHEMBL4619715 (Bioorg Med Chem Lett, 2020).

The nature of data set [1]: Oral bioavailability in rhesus monkey. Conditions: in vivo. Type of data set: ADME, organism-based, Macaca mulatta.
A short description of data set [2]: Distribution coefficient, logD of compound. The conditions noted are these: octanol/water. It counts as physicochemical.
Data set [3] is described as follows: Oral bioavailability in rat. The conditions noted are these: in vivo. Type of data set: ADME, organism-based.
A short description of data set [4]: Solubility of the compound at pH 7. Type of data set: physicochemical. Conditions: buffer.
Data set [5] in a line: Solubility of the compound at pH 2. Type of data set: physicochemical. The conditions noted are these: buffer.

Take `NC(=O)c1cc(-c2ccc(F)cc2)c2ccc(CN3C(=O)CCC3=O)cc2n1`: the bioavailability in data set [1] and in data set [3] was more than 99% in each case. For the same molecule, the logD (usually the decadic logarithm of the distribution of all forms, ionised or not, between an organic phase and buffer at a given pH) in data set [2] is 2.1.
For the molecule `CC[C@@](O)(c1cn(Cc2ccc3c(-c4ccc(F)cc4)cc(C(N)=O)nc3c2)nn1)C(F)(F)F`, the solubility in data set [4] and in data set [5] was less than 0.8 µM in each case.
